Data taken from US20050214375A1, “Process for producing block copolymer/drug composite” (priority 2002, published 2005).
Counter-ions that a name gives are not always drawn. Like-named read-outs stand apart in the source and are kept apart here.

System: Colon 26 adenocarcinoma cells
Conditions: intravenous; for T/C (%) volume ratio of tumor against control groups 14 days after administration: CDF1 female mouse, Colon 26
Description: Colon 26 adenocarcinoma cells were transplanted subcutaneously in the subaxillary region of each CDF1 female mouse. When the volume of the tumor reached around 100 mm^3, the block copolymer-drug composite obtained in Example 1 or doxorubicin hydrochloride was administered intravenously. […] The antitumor effect of the drug was judged from the number of mice showing disappearance of tumor (cured) 60 days after transplantation and the tumor proliferation inhibition ratio 14 days after administration.

COc1cccc2c1C(=O)c1c(O)c3c(c(O)c1C2=O)C[C@@](O)(C(=O)CO)C[C@@H]3O[C@H]1C[C@H](N)[C@H](O)[C@H](C)O1 [Doxorubicin hydrochloride, doxorubicin hydrochloride]
Cure/n: number of mice showing cure after 60 days observation period/number in one group (dose 19.2 mg/kg): 2/10 | Tox./n: number of mice died with toxicity/number in one group (dose 19.2 mg/kg): 0/10 | T/C (%) volume ratio of tumor against control groups 14 days after administration (dose 19.2 mg/kg): 13.5% | Cure/n: number of mice showing cure after 60 days observation period/number in one group (dose 24.0 mg/kg): 4/10 | Tox./n: number of mice died with toxicity/number in one group (dose 24.0 mg/kg): 0/10 | T/C (%) volume ratio of tumor against control groups 14 days after administration (dose 24.0 mg/kg): 6.4% | Cure/n: number of mice showing cure after 60 days observation period/number in one group (dose 30.0 mg/kg): 3/10 | Tox./n: number of mice died with toxicity/number in one group (dose 30.0 mg/kg): 1/10 | T/C (%) volume ratio of tumor against control groups 14 days after administration (dose 30.0 mg/kg): 9.9%
